Test results taken from US12297213B2, “Metal hydroxide complex comprising modified multilayer hydroxide structure comprising active ingredient and method of manufacturing same” (CNPHARM CO., LTD., priority 2018, dated 2025).

Tests used:
COL1A1 mRNA = experiment: COL1A1 (type 1 collagen) mRNA expression by qRT-PCR in human dermal fibroblasts; assay type: cell-based; conditions: positive control at 5.0 ng/ml, mean±SD
Description: (§1) For the in-vitro collagen production increase test of Example 3 (hereinafter, referred to as “JL-101 powder”), normal human dermal fibroblasts (HDFs) were used. In order to set the test solution concentration of the sample, HDFs were treated with the sample material for 24 hr and the concentration range in which cytotoxicity was not observed was confirmed through a cytotoxicity test. HDFs were treated with 'JL-101 powder' at the set test solution concentration in the same manner, and thus the expression levels of COL1A1 and COL3A1 mRNA, which are collagen genes, were compared and analyzed using real-time PCR (RT-PCR). […] The expression level of a collagen gene was determined by measuring the expression levels of a COL1A1 gene, which is a representative component of type 1 collagen, and of a COL3A1 gene, which is a representative component of type 3 collagen, using quantitative real-time PCR (qRT-PCR) (Peter, 2008). […] The concentration and purity (A260/A280 and A260/A230 ratio) of total mRNA were measured using a MaestroNano® microvolume spectrophotometer (Maestrogen, Las Vegas, NV, USA), and only total mRNA having high purity of 2.0 or more was selected. […] Mix Plus (Solis BioDyne, Estonia), and the expression of the corresponding gene was analyzed using Line-Gene K software (Bioer Technology Co. Ltd., Hangzhou, China). […]

COL3A1 mRNA = experiment: COL3A1 (type 3 collagen) mRNA expression by qRT-PCR in human dermal fibroblasts; assay type: cell-based; conditions: positive control at 5.0 ng/ml, mean±SD
Description: as §1

Q: What does the source list for TGF-β?
A: increase of expression of COL1A1 mRNA compared to the negative control (COL1A1 mRNA): 219.65±7.25%; increase of expression of COL3A1 mRNA compared to the negative control (COL3A1 mRNA): 22.93±6.21%
